Data: the NIST ThermoML archive (doi:10.1016/j.jct.2015.09.010)
± gives the expanded uncertainty stated by the source.

Conditions: 298.15 K; 101.33 kPa; Liquid; Pycnometric method
Work on `CCCCO` [butan-1-ol] yielded a mass density of 806.1 ± 4.8 kg/m3.
Compound `CO` [methanol] has a mass density of 786.6 ± 4.8 kg/m3.
With `CC#N` [acetonitrile] the mass density was 777.1 ± 4.8 kg/m3.
`CCCO` [propan-1-ol] showed a mass density of 799.7 ± 4.8 kg/m3.
Compound `CC(C)O` [propan-2-ol] has a mass density of 781.1 ± 4.8 kg/m3.
Compound `CCO` [ethanol] has a mass density of 785.3 ± 4.8 kg/m3.
